Measurements reported in BindingDB's records for doi:10.7270/Q29Z94WS (Warner-Lambert, 1995).

Molecular target: T1, Sterol O-acyltransferase 1 (Rattus norvegicus, UniProt O70536)
T1 sequence (O70536 whole entry): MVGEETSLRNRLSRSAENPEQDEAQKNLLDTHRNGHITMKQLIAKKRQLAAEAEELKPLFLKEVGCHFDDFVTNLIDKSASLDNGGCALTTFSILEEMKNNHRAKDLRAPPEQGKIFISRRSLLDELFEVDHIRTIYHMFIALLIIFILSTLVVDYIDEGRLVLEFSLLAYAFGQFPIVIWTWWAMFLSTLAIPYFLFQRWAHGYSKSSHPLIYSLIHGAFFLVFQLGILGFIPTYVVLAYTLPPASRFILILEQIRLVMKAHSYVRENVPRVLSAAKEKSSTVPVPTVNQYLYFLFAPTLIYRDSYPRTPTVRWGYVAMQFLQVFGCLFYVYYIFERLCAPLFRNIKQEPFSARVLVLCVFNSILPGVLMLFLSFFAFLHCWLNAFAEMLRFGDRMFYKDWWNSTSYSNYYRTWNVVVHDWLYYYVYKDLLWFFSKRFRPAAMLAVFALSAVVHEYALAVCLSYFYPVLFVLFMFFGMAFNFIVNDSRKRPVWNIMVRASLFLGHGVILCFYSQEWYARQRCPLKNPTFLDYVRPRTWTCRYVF
Experiment: (§1) Concentration required for the in vitro inhibition of Acyl coenzyme A:cholesterol acyltransferase (ACAT) in liver microsomes isolated from cholesterol-fed rats was determined

Which IC50 does the source give for `CCCCCCCCCCCCn1nnc(C(C(=O)Nc2c(OC)cc(OC)cc2OC)c2ccccc2)n1` (configuration not stated) [2-(2-Dodecyl-2H-tetrazol-5-yl)-2-phenyl-N-(2,4,6-trimethoxy-phenyl)-acetamide] here?
The IC50 was 24 nM.

Molecular target: T1, Sterol O-acyltransferase 1
Experiment: ChEBML_28484
Method: as §1

Which IC50 does the source give for `CCCCCCCCCCCCn1nnc(C(C(=O)Nc2c(OC)cc(OC)cc2OC)c2ccccc2)n1` (configuration not stated) [2-(2-Dodecyl-2H-tetrazol-5-yl)-2-phenyl-N-(2,4,6-trimethoxy-phenyl)-acetamide] here?
Its IC50 is 14 nM.

How did the IC50 turn out when `CCCCCCCCCCCCn1nnnc1C(C(=O)Nc1c(C(C)C)cccc1C(C)C)c1ccccc1` (configuration not stated) was run?
The IC50 was 79 nM.

For `CCCCCCCC[C@H](SCCCCCC)C(=O)Nc1c(SC)cc[n+](C)c1SC`, which IC50 is on record?
Its IC50 is 160 nM.

Which IC50 does the source give for `CCCCCCCCCCCCn1nnnc1C(C(=O)Nc1c(OC)cc(OC)cc1OC)c1ccccc1` (configuration not stated) here?
The IC50 was 52 nM.

Which IC50 does the source give for `CCCCCCCC[C@@H](SCCCCCC)C(=O)Nc1c(SC)cc[n+](C)c1SC` here?
The IC50 was 22 nM.

With `CCCCCCCCCCCCn1nnc(C(C(=O)Nc2c(C(C)C)cccc2C(C)C)c2ccccc2)n1` (configuration not stated) [N-(2,6-Diisopropyl-phenyl)-2-(2-dodecyl-2H-tetrazol-5-yl)-2-phenyl-acetamide] as the molecule, how does the IC50 read?
Its IC50 is 10 nM.
